Numbers after ± are expanded uncertainties.
Columns and labels:
[1] = xn = mol fraction of the nth substance listed; conditions: 81.5 kPa, Liquid, Vibrating tube method
[2] = refractive index (Na D-line) (dimensionless); xn = mol fraction of the nth substance listed; conditions: 81.5 kPa, Liquid, Standard Abbe refractometry

Row | Compound | mass density ([1]; 293.15 K, x1 = 1) [kg/m3] | mass density ([1]; 303.15 K, x1 = 1) [kg/m3] | mass density ([1]; 313.15 K, x1 = 1) [kg/m3] | mass density ([1]; 323.15 K, x1 = 1) [kg/m3] | mass density ([1]; 333.15 K, x1 = 1) [kg/m3] | refractive index ([2]; 293.15 K, x1 = 1) | refractive index ([2]; 303.15 K, x1 = 1) | refractive index ([2]; 313.15 K, x1 = 1) | refractive index ([2]; 323.15 K, x1 = 1) | refractive index ([2]; 333.15 K, x1 = 1) | mass density ([1]; 293.15 K, x2 = 0) [kg/m3] | mass density ([1]; 303.15 K, x2 = 0) [kg/m3] | mass density ([1]; 313.15 K, x2 = 0) [kg/m3] | mass density ([1]; 323.15 K, x2 = 0) [kg/m3] | mass density ([1]; 333.15 K, x2 = 0) [kg/m3] | refractive index ([2]; 293.15 K, x2 = 0) | refractive index ([2]; 303.15 K, x2 = 0) | refractive index ([2]; 313.15 K, x2 = 0) | refractive index ([2]; 323.15 K, x2 = 0) | refractive index ([2]; 333.15 K, x2 = 0)
1 | Clc1ccccc1 [chlorobenzene] + Brc1ccccc1 | 1106.49 ± 10 | 1095.71 ± 10 | 1084.86 ± 10 | 1073.96 ± 10 | 1063.01 ± 10 | 1.52455 ± 0.01 | 1.51902 ± 0.01 | 1.51346 ± 0.01 | 1.50781 ± 0.01 | 1.50223 ± 0.01 |  |  |  |  |  |  |  |  |  | 
2 | O=[N+]([O-])c1ccccc1 [nitrobenzene] + Brc1ccccc1 |  |  |  |  |  |  |  |  |  |  | 1203.05 ± 10 | 1193.15 ± 10 | 1183.21 ± 10 | 1173.27 ± 10 | 1163.32 ± 10 | 1.55241 ± 0.01 | 1.54763 ± 0.01 | 1.54288 ± 0.01 | 1.53795 ± 0.01 | 1.53289 ± 0.01
3 | O=[N+]([O-])c1ccccc1 [nitrobenzene] + Clc1ccccc1 |  |  |  |  |  |  |  |  |  |  | 1203.05 ± 10 | 1193.15 ± 10 | 1183.21 ± 10 | 1173.27 ± 10 | 1163.32 ± 10 | 1.55241 ± 0.01 | 1.54763 ± 0.01 | 1.54288 ± 0.01 | 1.53795 ± 0.01 | 1.53289 ± 0.01
